Reference: ChEMBL document CHEMBL3885881, “DrugMatrix”

Species: Rattus norvegicus
Assay: DrugMatrix - Regimen: Daily Repeat
Format: toxicity, organism-based, Sprague-Dawley
Set-up: regimen Daily Repeat, gender Male, age 6-8 weeks
Settings: in vivo, po, […], route oral GAVAGE, dose 4.6 mg/Kg, dose level High, vehicle .5 % CMC; for BASOPHIL / EOSINOPHIL / ERYTHROCYTE COUNT / HEMATOCRIT / HEMOGLOBIN / LEUKOCYTE COUNT / LYMPHOCYTE / MEAN CORPUSCULAR HEMOGLOBIN / MEAN CORPUSCULAR HEMOGLOBIN CONCENTRATION / MEAN CORPUSCULAR VOLUME / MONOCYTE / NEUTROPHIL / PLATELET COUNT: tissue Blood; for ALANINE AMINOTRANSFERASE / ALBUMIN / ALKALINE PHOSPHATASE / ASPARTATE AMINOTRANSFERASE / BLOOD UREA NITROGEN / CARBON DIOXIDE / CHLORIDE / CHOLESTEROL / CREATINE PHOSPHOKINASE / CREATININE / GLUCOSE / LACTATE DEHYDROGENASE / LIPASE / PHOSPHORUS / POTASSIUM / SODIUM / TOTAL BILIRUBIN / TOTAL PROTEIN / URIC ACID: tissue Plasma

## COc1ccc(C(=O)Nc2c(Cl)c[n+]([O-])cc2Cl)c2ccc(C(F)(F)F)nc12 [SCH-351591]
96 h, time 4 day
  BASOPHIL: 0.27%
  EOSINOPHIL: 1.13%
  ERYTHROCYTE COUNT: 6.53 x10E6/uL
  HEMATOCRIT: 40.97%
  HEMOGLOBIN: 13.13 G/DL
  LEUKOCYTE COUNT: 18.12 x10E3/uL
  LYMPHOCYTE: 79.83%
  MEAN CORPUSCULAR HEMOGLOBIN: 20.13 pg
  MEAN CORPUSCULAR HEMOGLOBIN CONCENTRATION: 32.1 G/DL
  MEAN CORPUSCULAR VOLUME: 62.73 fL
  MONOCYTE: 2.33%
  NEUTROPHIL: 15.77%
  PLATELET COUNT: 1324.67 x10E3/uL
  ALANINE AMINOTRANSFERASE: 40.33 u/L
  ALBUMIN: 3.93 G/DL
  ALKALINE PHOSPHATASE: 341 u/L
  ASPARTATE AMINOTRANSFERASE: 77 u/L
  BLOOD UREA NITROGEN: 21.33 mg/dL
  CARBON DIOXIDE: 23.33 mmol/L
  CHLORIDE: 105 MEQ/L
  CHOLESTEROL: 88 mg/dL
  CREATINE PHOSPHOKINASE: 540.67 u/L
  CREATININE: 0.4 mg/dL
  GLUCOSE: 177 mg/dL
  LACTATE DEHYDROGENASE: 256 u/L
  LIPASE: 18 u/L
  PHOSPHORUS: 12.67 mg/dL
  POTASSIUM: 6.37 MEQ/L
  SODIUM: 146.33 MEQ/L
  TOTAL BILIRUBIN: 0.37 mg/dL
  TOTAL PROTEIN: 6.23 G/DL
  URIC ACID: 1.67 mg/dL
Time 6 day
  BASOPHIL: 0.33%
  EOSINOPHIL: 0.37%
  ERYTHROCYTE COUNT: 7.26 x10E6/uL
  HEMATOCRIT: 48.6%
  HEMOGLOBIN: 14.77 G/DL
  LEUKOCYTE COUNT: 20.98 x10E3/uL
  LYMPHOCYTE: 75.93%
  MEAN CORPUSCULAR HEMOGLOBIN: 20.37 pg
  MEAN CORPUSCULAR HEMOGLOBIN CONCENTRATION: 30.33 G/DL
  MEAN CORPUSCULAR VOLUME: 67.07 fL
  MONOCYTE: 2.13%
  NEUTROPHIL: 19.93%
  PLATELET COUNT: 1217.67 x10E3/uL
  ALANINE AMINOTRANSFERASE: 24.33 u/L
  ALBUMIN: 3.9 G/DL
  ALKALINE PHOSPHATASE: 313.33 u/L
  ASPARTATE AMINOTRANSFERASE: 61.33 u/L
  BLOOD UREA NITROGEN: 17.67 mg/dL
  CARBON DIOXIDE: 25.67 mmol/L
  CHLORIDE: 108.33 MEQ/L
  CHOLESTEROL: 80.67 mg/dL
  CREATINE PHOSPHOKINASE: 190.33 u/L
  CREATININE: 0.47 mg/dL
  GLUCOSE: 161 mg/dL
  LACTATE DEHYDROGENASE: 82 u/L
  LIPASE: 43.33 u/L
  PHOSPHORUS: 12.93 mg/dL
  POTASSIUM: 6.5 MEQ/L
  SODIUM: 149.33 MEQ/L
  TOTAL BILIRUBIN: 0.43 mg/dL
  TOTAL PROTEIN: 6.13 G/DL
  URIC ACID: 1.47 mg/dL
Time 14 day
  BASOPHIL: 0.38%
  EOSINOPHIL: 0.52%
  ERYTHROCYTE COUNT: 7.4 x10E6/uL
  HEMATOCRIT: 46.48%
  HEMOGLOBIN: 14.82 G/DL
  LEUKOCYTE COUNT: 23.35 x10E3/uL
  LYMPHOCYTE: 67.1%
  MEAN CORPUSCULAR HEMOGLOBIN: 20.06 pg
  MEAN CORPUSCULAR HEMOGLOBIN CONCENTRATION: 31.86 G/DL
  MEAN CORPUSCULAR VOLUME: 62.92 fL
  MONOCYTE: 1.96%
  NEUTROPHIL: 28.36%
  PLATELET COUNT: 1247.4 x10E3/uL
  ALANINE AMINOTRANSFERASE: 34.6 u/L
  ALBUMIN: 3.96 G/DL
  ALKALINE PHOSPHATASE: 330.4 u/L
  ASPARTATE AMINOTRANSFERASE: 65.6 u/L
  BLOOD UREA NITROGEN: 21 mg/dL
  CARBON DIOXIDE: 26.2 mmol/L
  CHLORIDE: 106.4 MEQ/L
  CHOLESTEROL: 70 mg/dL
  CREATINE PHOSPHOKINASE: 225.2 u/L
  CREATININE: 0.48 mg/dL
  GLUCOSE: 157.4 mg/dL
  LACTATE DEHYDROGENASE: 185.6 u/L
  LIPASE: 29.2 u/L
  PHOSPHORUS: 11.86 mg/dL
  POTASSIUM: 6.36 MEQ/L
  SODIUM: 149.8 MEQ/L
  TOTAL BILIRUBIN: 0.38 mg/dL
  TOTAL PROTEIN: 6.36 G/DL
  URIC ACID: 1.84 mg/dL
